Test results published in ChEMBL document CHEMBL4804284.

Key:
Design in all cases: scale not given: the % may be the effect or the level left
[1] = target: Mitogen-activated protein kinase kinase kinase 7 (Homo sapiens) (UniProt O43318); test: Inhibition of DNA-tagged human TAK1 assessed as percent of control at 50000 nM by qPCR analysis relative to control
[2] = target: Ephrin type-A receptor 4 (Homo sapiens) (UniProt P54764); test: Inhibition of DNA-tagged human EPHA4 assessed as percent of control at 50000 nM by qPCR analysis relative to control
[3] = target: Serine/threonine-protein kinase Nek3 (Homo sapiens) (UniProt P51956); test: Inhibition of DNA-tagged human NEK3 assessed as percent of control at 50000 nM by qPCR analysis relative to control
Chain of Serine/threonine-protein kinase Nek3 (Homo sapiens) (P51956 whole entry): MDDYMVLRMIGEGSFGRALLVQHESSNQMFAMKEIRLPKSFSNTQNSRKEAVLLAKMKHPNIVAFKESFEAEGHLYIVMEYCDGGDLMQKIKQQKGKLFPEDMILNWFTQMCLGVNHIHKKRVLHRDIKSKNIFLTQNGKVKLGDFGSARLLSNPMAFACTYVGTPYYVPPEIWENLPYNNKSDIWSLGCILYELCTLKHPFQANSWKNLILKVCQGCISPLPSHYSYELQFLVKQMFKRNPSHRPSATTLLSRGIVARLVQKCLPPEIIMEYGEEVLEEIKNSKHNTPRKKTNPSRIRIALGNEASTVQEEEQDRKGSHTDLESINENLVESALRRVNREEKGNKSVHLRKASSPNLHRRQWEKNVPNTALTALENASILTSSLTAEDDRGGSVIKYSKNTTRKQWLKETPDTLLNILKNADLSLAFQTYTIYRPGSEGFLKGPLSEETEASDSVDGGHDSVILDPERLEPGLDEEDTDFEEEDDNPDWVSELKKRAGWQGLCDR

[4] = target: Hepatocyte growth factor receptor (Homo sapiens) (UniProt P08581); test: Inhibition of DNA-tagged human MET assessed as percent of control at 50000 nM by qPCR analysis relative to control
[5] = test system: Epidermal growth factor receptor (Homo sapiens), P00533 [UNDEFINED MUTATION]; test: Inhibition of DNA-tagged human EGFR L747-E749del/A750P double mutant assessed as percent of control at 50000 nM by qPCR analysis relative to control
Chain of Epidermal growth factor receptor (Homo sapiens), P00533 [UNDEFINED MUTATION] (P00533 whole entry, looked up, stated change not applied): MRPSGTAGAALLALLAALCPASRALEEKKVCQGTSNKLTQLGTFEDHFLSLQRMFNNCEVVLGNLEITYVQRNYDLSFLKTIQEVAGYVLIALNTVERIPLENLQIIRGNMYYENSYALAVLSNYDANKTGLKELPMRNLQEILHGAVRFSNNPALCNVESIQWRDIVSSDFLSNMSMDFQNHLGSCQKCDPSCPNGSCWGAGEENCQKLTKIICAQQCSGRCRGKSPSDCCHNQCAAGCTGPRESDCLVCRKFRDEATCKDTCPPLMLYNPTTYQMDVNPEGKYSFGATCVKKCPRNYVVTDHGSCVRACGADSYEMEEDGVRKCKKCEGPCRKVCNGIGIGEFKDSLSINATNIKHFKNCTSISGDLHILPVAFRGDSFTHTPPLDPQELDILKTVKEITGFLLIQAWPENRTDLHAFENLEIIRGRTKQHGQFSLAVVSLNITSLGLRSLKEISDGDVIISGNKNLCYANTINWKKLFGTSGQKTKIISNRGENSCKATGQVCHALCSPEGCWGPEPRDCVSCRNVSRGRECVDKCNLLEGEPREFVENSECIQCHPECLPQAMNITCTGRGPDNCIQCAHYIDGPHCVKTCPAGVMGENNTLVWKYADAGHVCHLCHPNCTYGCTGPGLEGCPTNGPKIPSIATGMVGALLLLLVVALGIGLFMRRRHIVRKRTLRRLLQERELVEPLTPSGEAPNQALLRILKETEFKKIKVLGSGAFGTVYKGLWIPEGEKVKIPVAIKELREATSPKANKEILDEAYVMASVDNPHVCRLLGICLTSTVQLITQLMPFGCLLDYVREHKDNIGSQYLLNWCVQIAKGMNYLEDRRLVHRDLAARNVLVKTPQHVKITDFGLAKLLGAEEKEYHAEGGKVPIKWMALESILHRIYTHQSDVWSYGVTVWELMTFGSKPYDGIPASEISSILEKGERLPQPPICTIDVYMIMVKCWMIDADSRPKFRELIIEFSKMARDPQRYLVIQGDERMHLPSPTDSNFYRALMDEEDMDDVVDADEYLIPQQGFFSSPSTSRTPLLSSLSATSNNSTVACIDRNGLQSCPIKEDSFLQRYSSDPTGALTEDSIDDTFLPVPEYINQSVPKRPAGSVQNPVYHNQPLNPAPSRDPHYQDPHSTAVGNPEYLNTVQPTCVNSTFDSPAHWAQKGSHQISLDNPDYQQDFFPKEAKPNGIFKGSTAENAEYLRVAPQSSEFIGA

[6] = target: Serine/threonine-protein kinase D2 (Homo sapiens) (UniProt Q9BZL6); test: Inhibition of DNA-tagged human PRKD2 assessed as percent of control at 50000 nM by qPCR analysis relative to control
[7] = target: Epithelial discoidin domain-containing receptor 1 (Homo sapiens) (UniProt Q08345); test: Inhibition of DNA-tagged human DDR1 assessed as percent of control at 50000 nM by qPCR analysis relative to control
Chain of Epithelial discoidin domain-containing receptor 1 (Homo sapiens) (Q08345 whole entry, the tested form may be a part): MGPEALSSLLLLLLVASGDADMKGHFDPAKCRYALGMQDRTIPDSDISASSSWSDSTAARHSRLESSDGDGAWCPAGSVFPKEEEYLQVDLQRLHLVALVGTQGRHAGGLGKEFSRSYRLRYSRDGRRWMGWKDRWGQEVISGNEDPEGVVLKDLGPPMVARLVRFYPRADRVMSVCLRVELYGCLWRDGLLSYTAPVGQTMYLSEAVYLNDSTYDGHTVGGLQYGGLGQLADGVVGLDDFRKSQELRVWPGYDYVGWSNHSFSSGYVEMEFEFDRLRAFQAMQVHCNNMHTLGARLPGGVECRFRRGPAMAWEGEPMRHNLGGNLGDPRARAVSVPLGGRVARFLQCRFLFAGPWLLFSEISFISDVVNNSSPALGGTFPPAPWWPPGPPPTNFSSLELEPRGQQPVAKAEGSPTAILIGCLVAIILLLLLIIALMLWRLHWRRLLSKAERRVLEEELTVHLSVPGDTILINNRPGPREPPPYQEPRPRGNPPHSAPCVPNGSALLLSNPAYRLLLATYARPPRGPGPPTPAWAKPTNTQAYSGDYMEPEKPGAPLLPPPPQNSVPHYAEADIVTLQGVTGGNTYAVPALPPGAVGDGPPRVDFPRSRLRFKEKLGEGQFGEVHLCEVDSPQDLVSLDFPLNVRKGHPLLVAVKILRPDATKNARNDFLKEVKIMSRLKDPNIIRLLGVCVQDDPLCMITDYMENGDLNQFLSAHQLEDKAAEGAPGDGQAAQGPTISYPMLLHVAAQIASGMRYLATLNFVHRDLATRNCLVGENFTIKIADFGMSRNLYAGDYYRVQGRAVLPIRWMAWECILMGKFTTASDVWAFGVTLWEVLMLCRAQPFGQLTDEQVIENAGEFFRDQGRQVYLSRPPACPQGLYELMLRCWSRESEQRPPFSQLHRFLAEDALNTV

[8] = target: Serine/threonine-protein kinase Chk2 (Homo sapiens) (UniProt O96017); test: Inhibition of DNA-tagged human CHEK2 assessed as percent of control at 50000 nM by qPCR analysis relative to control
[9] = target: LIM domain kinase 1 (Homo sapiens) (UniProt P53667); test: Inhibition of DNA-tagged human LIMK1 assessed as percent of control at 50000 nM by qPCR analysis relative to control
[10] = target: Bone morphogenetic protein receptor type-1A (Homo sapiens) (UniProt P36894); test: Inhibition of DNA-tagged human BMPR1A assessed as percent of control at 50000 nM by qPCR analysis relative to control
[11] = target: BMP-2-inducible protein kinase (Homo sapiens) (UniProt Q9NSY1); test: Inhibition of DNA-tagged human BIKE assessed as percent of control at 50000 nM by qPCR analysis relative to control
[12] = target: Tyrosine-protein kinase ABL1 (Homo sapiens) (UniProt P00519); test: Inhibition of DNA-tagged phosphorylated human ABL1 assessed as percent of control at 50000 nM by qPCR analysis relative to control
Chain of Tyrosine-protein kinase ABL1 (Homo sapiens) (P00519 whole entry): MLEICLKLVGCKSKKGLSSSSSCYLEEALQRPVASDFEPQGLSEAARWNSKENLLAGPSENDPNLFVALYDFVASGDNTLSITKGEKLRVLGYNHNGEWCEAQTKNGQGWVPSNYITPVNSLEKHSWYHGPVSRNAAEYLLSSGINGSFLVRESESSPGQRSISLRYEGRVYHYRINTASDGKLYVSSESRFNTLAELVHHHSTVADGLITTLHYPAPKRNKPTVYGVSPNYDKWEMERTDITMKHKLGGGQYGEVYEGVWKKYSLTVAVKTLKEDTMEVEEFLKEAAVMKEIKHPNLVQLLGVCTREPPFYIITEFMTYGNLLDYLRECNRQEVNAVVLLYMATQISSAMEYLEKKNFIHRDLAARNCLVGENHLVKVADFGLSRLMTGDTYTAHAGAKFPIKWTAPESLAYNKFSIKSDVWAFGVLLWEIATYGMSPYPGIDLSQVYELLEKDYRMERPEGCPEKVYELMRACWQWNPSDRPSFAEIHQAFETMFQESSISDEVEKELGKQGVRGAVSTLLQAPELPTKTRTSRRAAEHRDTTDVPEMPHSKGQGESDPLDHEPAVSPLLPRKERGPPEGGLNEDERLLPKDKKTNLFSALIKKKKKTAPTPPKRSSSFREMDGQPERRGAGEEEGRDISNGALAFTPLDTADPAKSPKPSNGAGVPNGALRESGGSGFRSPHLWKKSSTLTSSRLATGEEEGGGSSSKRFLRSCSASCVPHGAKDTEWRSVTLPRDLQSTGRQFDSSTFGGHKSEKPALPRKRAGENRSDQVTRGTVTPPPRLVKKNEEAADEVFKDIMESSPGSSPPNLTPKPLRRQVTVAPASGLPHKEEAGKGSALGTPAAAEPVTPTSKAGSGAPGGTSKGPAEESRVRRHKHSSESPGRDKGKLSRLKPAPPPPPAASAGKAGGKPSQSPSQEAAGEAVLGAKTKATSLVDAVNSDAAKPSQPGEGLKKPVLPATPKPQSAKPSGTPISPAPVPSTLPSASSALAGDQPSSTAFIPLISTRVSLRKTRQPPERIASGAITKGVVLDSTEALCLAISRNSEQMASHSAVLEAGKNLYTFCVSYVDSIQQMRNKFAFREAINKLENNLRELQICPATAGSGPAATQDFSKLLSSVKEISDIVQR

[13] = target: Mitogen-activated protein kinase 6 (Homo sapiens) (UniProt Q16659); test: Inhibition of DNA-tagged human ERK3 assessed as percent of control at 50000 nM by qPCR analysis relative to control
[14] = target: BDNF/NT-3 growth factors receptor (Homo sapiens) (UniProt Q16620); test: Inhibition of DNA-tagged human TRKB assessed as percent of control at 50000 nM by qPCR analysis relative to control
[15] = target: Ribosomal protein S6 kinase beta-1 (Homo sapiens) (UniProt P23443); test: Inhibition of DNA-tagged human S6K1 assessed as percent of control at 50000 nM by qPCR analysis relative to control
[16] = target: Tyrosine-protein kinase Lck (Homo sapiens) (UniProt P06239); test: Inhibition of DNA-tagged human LCK assessed as percent of control at 50000 nM by qPCR analysis relative to control
[17] = target: Serine/threonine-protein kinase 16 (Homo sapiens) (UniProt O75716); test: Inhibition of DNA-tagged human STK16 assessed as percent of control at 50000 nM by qPCR analysis relative to control
[18] = target: Dual specificity mitogen-activated protein kinase kinase 2 (Homo sapiens) (UniProt P36507); test: Inhibition of DNA-tagged human MEK2 assessed as percent of control at 50000 nM by qPCR analysis relative to control
[19] = target: Casein kinase II subunit alpha' (Homo sapiens) (UniProt P19784); test: Inhibition of DNA-tagged human CSNK2A2 assessed as percent of control at 50000 nM by qPCR analysis relative to control
[20] = target: Platelet-derived growth factor receptor alpha (Homo sapiens) (UniProt P16234); test: Inhibition of DNA-tagged human PDGFRA assessed as percent of control at 50000 nM by qPCR analysis relative to control
[21] = target: Fibroblast growth factor receptor 1 (Homo sapiens) (UniProt P11362); test: Inhibition of DNA-tagged human FGFR1 assessed as percent of control at 50000 nM by qPCR analysis relative to control
[22] = target: Dual specificity protein kinase TTK (Homo sapiens) (UniProt P33981); test: Inhibition of DNA-tagged human TTK assessed as percent of control at 50000 nM by qPCR analysis relative to control
Chain of Dual specificity protein kinase TTK (Homo sapiens) (P33981 whole entry): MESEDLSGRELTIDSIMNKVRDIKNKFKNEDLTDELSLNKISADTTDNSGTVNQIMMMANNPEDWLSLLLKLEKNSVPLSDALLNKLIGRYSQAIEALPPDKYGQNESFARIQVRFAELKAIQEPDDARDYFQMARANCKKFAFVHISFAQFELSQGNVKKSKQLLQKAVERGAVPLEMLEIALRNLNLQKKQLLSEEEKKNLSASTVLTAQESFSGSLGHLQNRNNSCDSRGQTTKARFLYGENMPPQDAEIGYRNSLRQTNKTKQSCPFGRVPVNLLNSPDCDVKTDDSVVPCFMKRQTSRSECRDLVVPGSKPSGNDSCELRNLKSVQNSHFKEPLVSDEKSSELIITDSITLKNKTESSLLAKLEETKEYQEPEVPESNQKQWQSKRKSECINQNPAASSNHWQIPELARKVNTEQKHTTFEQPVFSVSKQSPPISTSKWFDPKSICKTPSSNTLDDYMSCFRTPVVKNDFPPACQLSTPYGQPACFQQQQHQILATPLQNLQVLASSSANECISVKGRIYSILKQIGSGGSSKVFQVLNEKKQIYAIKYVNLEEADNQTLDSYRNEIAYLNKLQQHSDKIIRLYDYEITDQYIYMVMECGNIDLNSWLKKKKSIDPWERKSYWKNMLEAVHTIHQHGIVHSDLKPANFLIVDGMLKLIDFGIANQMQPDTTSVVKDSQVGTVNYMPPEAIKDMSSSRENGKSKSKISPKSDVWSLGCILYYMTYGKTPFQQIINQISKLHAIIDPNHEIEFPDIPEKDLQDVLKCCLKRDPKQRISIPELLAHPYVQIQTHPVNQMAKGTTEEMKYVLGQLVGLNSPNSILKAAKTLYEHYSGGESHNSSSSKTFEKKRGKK

[23] = target: TGF-beta receptor type-2 (Homo sapiens) (UniProt P37173); test: Inhibition of DNA-tagged human TGFBR2 assessed as percent of control at 50000 nM by qPCR analysis relative to control
[24] = target: Serine/threonine-protein kinase N2 (Homo sapiens) (UniProt Q16513); test: Inhibition of DNA-tagged human PKN2 assessed as percent of control at 50000 nM by qPCR analysis relative to control
[25] = target: Serine/threonine-protein kinase 32A (Homo sapiens) (UniProt Q8WU08); test: Inhibition of DNA-tagged human YANK1 assessed as percent of control at 50000 nM by qPCR analysis relative to control
[26] = target: Leukocyte tyrosine kinase receptor (Homo sapiens) (UniProt P29376); test: Inhibition of DNA-tagged human LTK assessed as percent of control at 50000 nM by qPCR analysis relative to control
[27] = target: Mitogen-activated protein kinase kinase kinase 13 (Homo sapiens) (UniProt O43283); test: Inhibition of DNA-tagged human LZK assessed as percent of control at 50000 nM by qPCR analysis relative to control
[28] = target: Tyrosine-protein kinase BTK (Homo sapiens) (UniProt Q06187); test: Inhibition of DNA-tagged human BTK assessed as percent of control at 50000 nM by qPCR analysis relative to control
[29] = target: Serine/threonine-protein kinase 17B (Homo sapiens) (UniProt O94768); test: Inhibition of DNA-tagged human DRAK2 assessed as percent of control at 50000 nM by qPCR analysis relative to control
Chain of Serine/threonine-protein kinase 17B (Homo sapiens) (O94768 whole entry): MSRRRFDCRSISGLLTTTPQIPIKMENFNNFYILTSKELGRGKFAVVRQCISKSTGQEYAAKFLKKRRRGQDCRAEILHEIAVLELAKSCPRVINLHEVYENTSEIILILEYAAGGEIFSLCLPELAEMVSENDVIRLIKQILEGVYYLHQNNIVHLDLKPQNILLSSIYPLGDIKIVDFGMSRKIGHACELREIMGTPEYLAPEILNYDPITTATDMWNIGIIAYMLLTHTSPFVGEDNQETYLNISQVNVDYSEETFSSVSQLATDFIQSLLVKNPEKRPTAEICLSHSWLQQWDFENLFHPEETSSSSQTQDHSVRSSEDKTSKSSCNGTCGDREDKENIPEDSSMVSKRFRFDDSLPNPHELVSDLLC

[30] = target: MAP kinase-activated protein kinase 5 (Homo sapiens) (UniProt Q8IW41); test: Inhibition of DNA-tagged human MAPKAPK5 assessed as percent of control at 50000 nM by qPCR analysis relative to control

For `CN1C(=O)/C(=C2/C(=O)Nc3ccccc32)c2ccccc21`, the Activity [1] was 78%, the Activity [2] was 100% and the Activity [3] was 92%. The Activity [4] was 100%, the Activity [5] was 83% and the Activity [6] was 87%. The Activity [7] was 84%, the Activity [8] was 100% and the Activity [9] was 84%. It also gave an Activity [10] of 100%, an Activity [11] of 95% and an Activity [12] of 96%. The Activity [13] was 100%, the Activity [14] was 88% and the Activity [15] was 85%. The Activity [16] was 96%, the Activity [17] was 89% and the Activity [18] was 89%. The Activity [19] was 82%, the Activity [20] was 85% and the Activity [21] was 100%. It also gave an Activity [22] of 88%, an Activity [23] of 94% and an Activity [24] of 99%. It also gave an Activity [25] of 99%, an Activity [26] of 92% and an Activity [27] of 63%. For the same compound, the Activity [28] was 82%, the Activity [29] was 100% and the Activity [30] was 100%.
